These are literature values, as cited in patent publication US9586978B2, “Anti-viral compounds” (AbbVie Inc., priority 2009, dated 2017).

The subject of data set [1] is HCV genotype 1b. The note with it: observed by Nettles et al.; read-out: EC50 against HCV genotype 1b; cited from earlier work.
In data set [2] the test system is HCV genotype 5a. Particulars: observed by Nettles et al.; read-out: EC50 against HCV genotype 5a; cited from earlier work.
Data set [3] has as its system HCV genotype 3a. Particulars: observed by Nettles et al.; read-out: EC50 against HCV genotype 3a; cited from earlier work.
The test system of data set [4] is different HCV genotypes. The note with it: summary over genotypes, see Nettles et al.; cited from earlier work.
Data set [5] deals with HCV genotype 1a. The note with it: observed by Nettles et al.; read-out: EC50 against HCV genotype 1a; cited from earlier work.
The subject of data set [6] is HCV genotype 4a. Particulars: observed by Nettles et al.; read-out: EC50 against HCV genotype 4a; cited from earlier work.

Take `COC(=O)N[C@H](C(=O)N1CCC[C@H]1c1ncc(-c2ccc(-c3ccc(-c4cnc([C@@H]5CCCN5C(=O)[C@@H](NC(=O)OC)C(C)C)[nH]4)cc3)cc2)[nH]1)C(C)C` [BMS-790052]: the EC50 is 0.009 nM in data set [1]; 0.033 nM in data set [2]; 0.127 nM in data set [3]; at most 0.2 nM in data set [4]; 0.05 nM in data set [5]; 0.012 nM in data set [6].
